Patent publication US11072617B2, “Bicyclic sulfones and sulfoxides and methods of use thereof” (Genentech, Inc., priority 2017, dated 2021)

Target: human RIP1 kinase domain (2-375) (Homo sapiens (Human), UniProt Q13546)
Assay: RIP1 kinase inhibition biochemical assay (Transcreener ADP, fluorescence polarization)
Settings: Ki app from tight-binding Morrison equation; 50 nM enzyme, 50 uM ATP, 2 hours incubation
Experimental: RIP1 Kinase Inhibition Assays (Biochemical Assay)
The compounds of the present invention were tested for their capacity to inhibit RIP1K activity as described below.
The ability of the receptor interacting protein kinase (RIPK1) to catalyze the hydrolysis of adenosine-5′-triphosphate (ATP) is monitored using the Transcreener ADP (adenosine-5′-diphosphate) assay (BellBrook Labs). Purified human RIP1 kinase domain (2-375) (50 nM) derived from a baculovirus-infected insect cell expression system is incubated with test compounds for 2 hours in 50 mM Hepes buffer (pH 7.5) containing 30 mM MgCl2, 1 mM dithiothreitol, 50 uM ATP, 0.002% Brij-35, and 0.5% dimethyl sulfoxide (DMSO). Reactions are quenched by the addition of 1× Bell Brooks Stop buffer B (20 mM Hepes (ph7.5), 40 mM ethylenediaminetetraacetic acid and 0.02% Brij-35) containing an additional 12 mM EDTA and 55 ug/mL ADP2 antibody and 4 nM ADP-AlexaFluor® 633 tracer. The tracer bound to the antibody is displaced by the ADP generated during the RIP1K reaction, which causes a decrease in fluorescence polarization that is measured by laser excitation at 633 nm with a FP microplate reader M1000. Fractional activity was plotted against test article concentration. Using Genedata Screener software (Genedata; Basel, Switzerland), the data were fit to the tight-binding apparent inhibition constant (Ki^app) Morrison equation [Williams, J. W. and Morrison, J. F. (1979) The kinetics of reversible tight-binding inhibition. Methods Enzymol 63: 437-67]. The following equation was used to calculate fractional activity and Ki^app:
[formula] where [E]T and [I]T are the total concentrations of active enzyme and test article, respectively.
Exemplary compounds of the present invention are provided in Table 1 along with their physiochemical characterization and in vitro RIP1 kinase inhibitory activity data. “Method” in the first column of each table refers to the synthetic method(s) used to prepare each compound as shown in the Examples above. In certain examples, chiral column retention times (min) are provided for certain stereoisomers. Unless otherwise specified, the stereochemistry shown in each structure represents relative configuration of a single stereoisomer, and absolute configuration (i.e., “R” and/or “S”) is arbitrarily assigned. In some embodiments, where the Method is described to include the separation of stereoisomers, a single stereoisomer of a compound of Table 1 is provided.

Chain of human RIP1 kinase domain (2-375) (Q13546 2-375): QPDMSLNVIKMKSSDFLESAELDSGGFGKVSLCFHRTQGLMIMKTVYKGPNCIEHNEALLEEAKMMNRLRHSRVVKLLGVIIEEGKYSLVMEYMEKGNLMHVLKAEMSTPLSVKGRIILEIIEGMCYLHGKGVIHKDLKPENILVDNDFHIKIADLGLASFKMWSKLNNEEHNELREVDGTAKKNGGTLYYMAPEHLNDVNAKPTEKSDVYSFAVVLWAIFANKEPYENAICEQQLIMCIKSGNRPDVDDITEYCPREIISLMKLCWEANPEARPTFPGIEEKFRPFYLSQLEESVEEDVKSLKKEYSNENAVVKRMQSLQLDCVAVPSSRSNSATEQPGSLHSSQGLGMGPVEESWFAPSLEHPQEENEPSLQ

| Ki | Structure (SMILES) |
| --- | --- |
| < 0.005 µM | [O-][S@@+](CF)c1nc2n(n1)[C@H](c1ccccc1Cl)C[C@@H]2F (single isomer, unassigned) [Example 86] |
| 0.015 µM | C[C@@H](F)S(=O)(=O)c1nc2n(n1)[C@H](c1ccccc1)C[C@@H]2F (single isomer, unassigned) [Example 159] |
| 0.069 µM | O=S(=O)(c1nc2n(n1)[C@H](c1cc(Cl)ccc1F)C[C@@H]2F)C(F)F [Example 66, (5S,7S)-5-(5-chloro-2-fluorophenyl)-2-((difluoromethyl)sulfonyl)-7-fluoro-6,7-dihydro-5H-pyrrolo[1,2-b][1,2,4]triazole] |
| < 0.005 µM | O=S(=O)(c1nc2n(n1)[C@H](c1cccc(F)c1F)C[C@@H]2F)C(F)(F)F (single isomer, unassigned) [Example 136] |
| 0.101 µM | O=S(=O)(c1nc2n(n1)C(c1ccccc1)CC2)C(F)F (racemic) [Example 6] |
| 0.003 µM | O=S(=O)(c1nc2n(n1)[C@H](c1ccccc1)C[C@@H]2F)[C@H]1CC1(F)F [Example 130, (5S,7S)-2-(((S)-2,2-difluorocyclopropyl)sulfonyl)-7-fluoro-5-phenyl-6,7-dihydro-5H-pyrrolo[1,2-b][1,2,4]triazole] |
| 0.01 µM | O=S(=O)(c1nc2n(n1)[C@H](c1c(F)ccc(F)c1F)C[C@@H]2F)C1CC1 (single isomer, unassigned) [Example 38] |
| 0.014 µM | CC(C)(C#N)S(=O)(=O)c1nc2n(n1)[C@H](c1ccccc1)C[C@@H]2F (single isomer, unassigned) [Example 104] |
| 0.039 µM | O=S(=O)(c1nc2n(n1)[C@H](c1cccc(Cl)c1)C[C@@H]2F)C1CC1 [Example 203, (5S,7S)-5-(3-chlorophenyl)-2-cyclopropylsulfonyl-7-fluoro-6,7-dihydro-5H-pyrrolo[1,2-b][1,2,4]triazole] |
| 0.18 µM | [O-][S@+](CF)c1nc2n(n1)[C@H](c1cc(F)cc(F)c1)C[C@@H]2F (single isomer, unassigned) [Example 85] |
| 0.35 µM | N#Cc1cccc([C@@H]2C[C@H](F)c3nc(S(=O)(=O)C(F)F)nn32)c1 (single isomer, unassigned) [Example 192] |
| 0.003 µM | N#CC[S@@+]([O-])c1nc2n(n1)[C@H](c1ccc(F)cc1)C[C@@H]2F (single isomer, unassigned) [Example 100] |
| < 0.005 µM | O=S(=O)(c1nc2n(n1)[C@H](c1cc(F)ccc1F)C[C@@H]2F)C1CC1F (stereo in doubt) [Example 202, (5S,7S)-5-(2,5-difluorophenyl)-7-fluoro-2-[(1R,2R)-2-fluorocyclopropyl]sulfonyl-6,7-dihydro-5H-pyrrolo[1,2-b][1,2,4]triazole] |
| 0.548 µM | [O-][S+](c1nc2n(n1)C(c1ccccc1)CC2)C(F)(F)c1ccccc1 (stereo not shown) [Example 5, 2-[difluoro(phenyl)methyl]sulfinyl-5-phenyl-6,7-dihydro-5H-pyrrolo[1,2-b][1,2,4]triazole] |
| < 0.005 µM | O=S(=O)(c1nc2n(n1)[C@H](c1cccc(F)c1F)C[C@@H]2F)[C@H]1CC1(F)F [Example 121, (5S,7S)-2-(2,2-difluorocyclopropyl)sulfonyl-5-(2,3-difluorophenyl)-7-fluoro-6,7-dihydro-5H-pyrrolo[1,2-b][1,2,4]triazole] |
| 0.003 µM | [O-][S@@+](CF)c1nc2n(n1)[C@H](c1ccccc1)C[C@@H]2F (single isomer, unassigned) [Example 73] |
| 0.004 µM | N#CC[S@@+]([O-])c1nc2n(n1)[C@H](c1ccccc1Cl)C[C@@H]2F (single isomer, unassigned) [Example 94] |
| < 0.005 µM | O=S(=O)(c1nc2n(n1)[C@H](c1ccccc1Cl)C[C@@H]2F)[C@@H]1CC1(F)F (single isomer, unassigned) [Example 125] |
| 0.28 µM | [O-][S@+](CF)c1nc2n(n1)[C@H](c1cccc(F)c1F)C[C@@H]2F (single isomer, unassigned) [Example 77] |
| < 0.005 µM | O=S(=O)(c1nc2n(n1)[C@H](c1cccc(F)c1)C[C@@H]2F)[C@@H]1C[C@H]1F (single isomer, unassigned) [Example 142] |

| Ki | Structure (SMILES) |
| --- | --- |
| 0.028 µM | [O-][S+](CC(F)(F)F)c1nc2n(n1)[C@H](c1ccccc1)C[C@@H]2F (stereo partly drawn) [Example 113, (5S,7S)-7-fluoro-5-phenyl-2-(2,2,2-trifluoroethylsulfinyl)-6,7-dihydro-5H-pyrrolo[1,2-b][1,2,4]triazole] |
| 0.003 µM | O=S(=O)(c1nc2n(n1)[C@H](c1ccccc1Cl)C[C@@H]2F)C1CC1 (single isomer, unassigned) [Example 32] |
| < 0.005 µM | O=S(=O)(c1nc2n(n1)[C@H](c1ccccc1)C[C@@H]2F)C1CC12CC2 (stereo partly drawn) [Example 170, (5S,7S)-7-fluoro-5-phenyl-2-spiro[2.2]pentan-2-ylsulfonyl-6,7-dihydro-5H-pyrrolo[1,2-b][1,2,4]triazole] |
| 0.037 µM | O=S(=O)(c1nc2n(n1)[C@H](c1cc(Cl)ccc1F)C[C@@H]2F)C1CC1F (stereo in doubt) [Example 207, (5S,7S)-5-(5-chloro-2-fluoro-phenyl)-7-fluoro-2-[(1S,2S)-2-fluorocyclopropyl]sulfonyl-6,7-dihydro-5H-pyrrolo[1,2-b][1,2,4]triazole] |
| 0.22 µM | O=S(=O)(c1nc2n(n1)C(c1cc(F)cc(F)c1)CC2)C(F)F (racemic) [Example 175, 2-(Difluoromethylsulfonyl)-5-(3,5-difluorophenyl)-6,7-dihydro-5H-pyrrolo[1,2-b][1,2,4]triazole] |
| 0.006 µM | O=S(=O)(c1nc2n(n1)[C@H](c1ccccc1)C[C@@H]2F)C1(F)CC1 (single isomer, unassigned) [Example 178] |
| 0.46 µM | O=S(=O)(c1nc2n(n1)[C@H](c1cccc(F)c1)C[C@@H]2F)[C@H]1C[C@@H](O)C1 (single isomer, unassigned) [Example 195] |
| 0.004 µM | [O-][S@@+](CC(F)(F)F)c1nc2n(n1)[C@H](c1ccccc1)C[C@@H]2F (single isomer, unassigned) [Example 183] |
| 0.048 µM | [O-][S@@+](c1nc2n(n1)[C@H](c1ccccc1)CC2)C(F)F [Example 12, (5S)-2-[(S)-difluoromethylsulfinyl]-5-phenyl-6,7-dihydro-5H-pyrrolo[1,2-b][1,2,4]triazole] |
| 0.008 µM | [O-][S@+](c1nc2n(n1)[C@H](c1ccccc1Cl)CC2)C(F)F [Example 18, (5S)-5-(2-chlorophenyl)-2-[(R)-difluoromethylsulfinyl]-6,7-dihydro-5H-pyrrolo[1,2-b][1,2,4]triazole] |
| 0.31 µM | [O-][S+](c1nc2n(n1)[C@H](c1cc(F)cc(F)c1)CC2)C(F)F (stereo in doubt) [Example 174, (5S)-2-[(R)-difluoromethylsulfinyl]-5-(3,5-difluorophenyl)-6,7-dihydro-5H-pyrrolo[1,2-b][1,2,4]triazole] |
| 0.032 µM | N#CCS(=O)(=O)c1nc2n(n1)[C@H](c1ccccc1)C[C@@H]2F (single isomer, unassigned) [Example 88] |
| < 0.005 µM | O=S(=O)(c1nc2n(n1)[C@H](c1cccc(F)c1)C[C@@H]2F)C1CC1 (single isomer, unassigned) [Example 48] |
| 0.29 µM | [O-][S@+](CF)c1nc2n(n1)[C@H](c1c(F)cccc1F)C[C@@H]2F (single isomer, unassigned) [Example 81] |
| 0.016 µM | O=S(=O)(c1nc2n(n1)[C@H](c1cccc(F)c1F)C[C@@H]2F)[C@H]1C[C@H](F)C1 [Example 204, (5S,7S)-5-(2,3-difluorophenyl)-7-fluoro-2-trans-(3-fluorocyclobutyl)sulfonyl-6,7-dihydro-5H-pyrrolo[1,2-b][1,2,4]triazole] |
| 0.004 µM | O=S(=O)(c1nc2n(n1)[C@H](c1ccccc1)C[C@@H]2F)[C@H]1C[C@@H]1F (single isomer, unassigned) [Example 146] |
| 0.019 µM | N#CC[S@+]([O-])c1cc2n(n1)[C@H](c1ccccc1)C[C@@H]2F (single isomer, unassigned) [Example 92] |
| 0.034 µM | O=S(=O)(c1nc2n(n1)[C@H](c1c(F)cccc1F)C[C@@H]2F)C(F)F (single isomer, unassigned) [Example 58] |
| 0.18 µM | COCCS(=O)(=O)c1nc2n(n1)[C@H](c1ccccc1)C[C@@H]2F (single isomer, unassigned) [Example 224] |
| 0.005 µM | O=S(=O)(c1nc2n(n1)[C@H](c1ccccc1F)C[C@@H]2F)C1CC1 [Example 33, (5S,7S)-2-cyclopropylsulfonyl-7-fluoro-5-(2-fluorophenyl)-6,7-dihydro-5H-pyrrolo[1,2-b][1,2,4]triazole] |
